According to ChEMBL document CHEMBL4627384, “l-Thyroxin and the Nonclassical Thyroid Hormone TETRAC Are Potent Activators of PPARγ” (J Med Chem, 2020):
pEC50: −log10 of the molar value. Active and inactive are the calls of the source. No cut-off for these calls is given here.

Legend:
[1] = Drug metabolism in human HepG2 cells assessed as (S)-2-amino-3-(4-(4-hydroxy-3-iodophenoxy)-3,5-diiodophenyl)propanoic acid formation at 10 uM incubated for 24 hrs by LC-MS analysis; type: ADME, cell-based; details: hepg2, 24 h
[2] = target: Luciferin 4-monooxygenase (Photinus pyralis) (UniProt P08659); test: Activation of firefly luciferase expressed in HEK293T cells at 15 uM incubated for 14 to 16 hrs by reporter gene assay; type: cell-based; details: HEK-293T
Luciferin 4-monooxygenase (Photinus pyralis), sequence (P08659 whole entry): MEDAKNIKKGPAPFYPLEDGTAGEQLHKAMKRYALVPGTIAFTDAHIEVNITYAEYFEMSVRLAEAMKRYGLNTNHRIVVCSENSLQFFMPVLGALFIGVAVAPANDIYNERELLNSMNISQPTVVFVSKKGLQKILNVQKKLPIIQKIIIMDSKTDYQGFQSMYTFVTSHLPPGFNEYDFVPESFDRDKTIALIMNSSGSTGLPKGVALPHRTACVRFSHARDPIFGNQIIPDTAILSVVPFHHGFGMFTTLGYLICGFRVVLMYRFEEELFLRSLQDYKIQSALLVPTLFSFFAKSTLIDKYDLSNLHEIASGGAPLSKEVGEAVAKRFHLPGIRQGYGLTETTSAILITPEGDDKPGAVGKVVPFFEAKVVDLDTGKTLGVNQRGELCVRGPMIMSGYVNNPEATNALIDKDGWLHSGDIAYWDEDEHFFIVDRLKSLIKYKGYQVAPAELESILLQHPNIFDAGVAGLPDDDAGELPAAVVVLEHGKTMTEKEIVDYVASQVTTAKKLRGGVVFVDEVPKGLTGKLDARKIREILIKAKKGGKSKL

[3] = target: T1, Peroxisome proliferator-activated receptor gamma (Homo sapiens) (UniProt P37231); test: Agonist activity at PPARgamma in human HepG2 cells without THRA knockdown assessed as induction of CD36 expression at 30 uM incubated for 8 hrs in by Western blot analysis; type: cell-based
T1 sequence (whole entry): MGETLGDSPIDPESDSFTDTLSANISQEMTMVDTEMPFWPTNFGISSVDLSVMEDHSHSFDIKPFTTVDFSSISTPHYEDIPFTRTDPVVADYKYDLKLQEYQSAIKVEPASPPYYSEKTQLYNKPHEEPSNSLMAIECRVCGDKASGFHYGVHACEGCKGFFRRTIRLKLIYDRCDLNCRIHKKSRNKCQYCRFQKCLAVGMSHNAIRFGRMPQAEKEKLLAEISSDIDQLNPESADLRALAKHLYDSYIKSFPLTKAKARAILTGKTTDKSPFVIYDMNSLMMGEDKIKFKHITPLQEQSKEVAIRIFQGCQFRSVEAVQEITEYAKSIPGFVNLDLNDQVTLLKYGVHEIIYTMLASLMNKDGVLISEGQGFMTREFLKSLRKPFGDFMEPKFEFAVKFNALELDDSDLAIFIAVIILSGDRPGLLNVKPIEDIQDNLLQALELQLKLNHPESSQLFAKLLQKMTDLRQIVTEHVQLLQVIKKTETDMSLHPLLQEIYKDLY

[4] = tested on: HEK-293T; test: Activation of renilla luciferase expressed in HEK293T cells at 15 uM incubated for 14 to 16 hrs by reporter gene assay; type: cell-based; details: Renilla reniformis
[5] = target: T1, Peroxisome proliferator-activated receptor gamma (Homo sapiens); test: Agonist activity at PPARgamma in human HepG2 cells assessed as induction of CD36 mRNA expression at 10 to 30 uM incubated for 8 hrs by qPCR analysis; type: cell-based
[6] = target: T2, Retinoic acid receptor RXR-alpha (Homo sapiens) (UniProt P19793); test: Agonist activity at GFP RXRalpha LBD (unknown origin) assessed as biotin-labeled SRC-1 recruitment incubated for 2 hrs by HT-FRET assay relative to SR11237
T2 sequence (whole entry): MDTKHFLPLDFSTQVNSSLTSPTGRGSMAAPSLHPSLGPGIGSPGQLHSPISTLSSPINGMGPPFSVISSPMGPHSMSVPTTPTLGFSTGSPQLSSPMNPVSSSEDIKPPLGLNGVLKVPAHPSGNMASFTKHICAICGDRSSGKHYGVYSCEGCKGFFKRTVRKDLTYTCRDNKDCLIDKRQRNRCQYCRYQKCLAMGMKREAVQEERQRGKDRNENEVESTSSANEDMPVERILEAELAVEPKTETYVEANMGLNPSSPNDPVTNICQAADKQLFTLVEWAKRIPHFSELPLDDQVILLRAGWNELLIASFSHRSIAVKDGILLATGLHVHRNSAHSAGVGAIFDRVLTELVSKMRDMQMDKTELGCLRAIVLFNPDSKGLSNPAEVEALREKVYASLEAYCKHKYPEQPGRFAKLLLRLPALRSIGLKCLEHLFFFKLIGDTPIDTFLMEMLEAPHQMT

[7] = target: T1, Peroxisome proliferator-activated receptor gamma (Homo sapiens); test: Agonist activity at PPARgamma in human HepG2 cells assessed as induction of CD36 mRNA expression at 0.03 to 1 uM incubated for 8 hrs by qPCR analysis; type: cell-based
[8] = target: T1, Peroxisome proliferator-activated receptor gamma (Homo sapiens); test: Agonist activity at recombinant human pFA-CMV fused PPARgamma LBD expressed in HEK293T cells transfected with pFR-luciferase plasmid and pRL-SV40 plasmid at 0.1 uM incubated for 14 to 16 hrs in presence of PPARgamma antagonist GW9662 by dual glo luciferase reporter gene assay; type: cell-based; details: HEK-293T
[9] = target: Luciferin 4-monooxygenase (Photinus pyralis) (UniProt P08659); test: Activation of firefly luciferase expressed in HEK293T cells at 0.1 uM incubated for 14 to 16 hrs by reporter gene assay; type: cell-based; details: HEK-293T
[10] = target: T3, Peroxisome proliferator-activated receptor gamma (Mus musculus) (UniProt P37238); test: Agonist activity at PPARgamma in mouse 3T3L1 adipocytes assessed as induction of LPL mRNA expression at 1 uM by qRT-PCR analysis; type: cell-based; details: 3T3-L1
T3 sequence (whole entry): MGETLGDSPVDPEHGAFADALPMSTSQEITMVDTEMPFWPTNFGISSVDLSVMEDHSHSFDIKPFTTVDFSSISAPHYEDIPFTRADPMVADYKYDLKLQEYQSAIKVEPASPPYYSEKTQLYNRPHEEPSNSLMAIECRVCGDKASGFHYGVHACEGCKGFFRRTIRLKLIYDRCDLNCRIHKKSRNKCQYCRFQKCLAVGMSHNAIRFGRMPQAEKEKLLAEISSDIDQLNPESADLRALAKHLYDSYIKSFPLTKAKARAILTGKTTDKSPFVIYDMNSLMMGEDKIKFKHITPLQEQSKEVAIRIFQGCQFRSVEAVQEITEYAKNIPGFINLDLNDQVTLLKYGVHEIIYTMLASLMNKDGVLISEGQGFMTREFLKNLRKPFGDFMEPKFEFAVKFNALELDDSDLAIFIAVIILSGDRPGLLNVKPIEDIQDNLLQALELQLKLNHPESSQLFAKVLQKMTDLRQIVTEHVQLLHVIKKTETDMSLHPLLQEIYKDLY

[11] = target: T4, Thyroid hormone receptor beta (Homo sapiens, UniProt P10828); test: Agonist activity at THRbeta (unknown origin) incubated for 14 to 16 hrs by dual glo luciferase reporter gene assay
T4 sequence (P10828 whole entry): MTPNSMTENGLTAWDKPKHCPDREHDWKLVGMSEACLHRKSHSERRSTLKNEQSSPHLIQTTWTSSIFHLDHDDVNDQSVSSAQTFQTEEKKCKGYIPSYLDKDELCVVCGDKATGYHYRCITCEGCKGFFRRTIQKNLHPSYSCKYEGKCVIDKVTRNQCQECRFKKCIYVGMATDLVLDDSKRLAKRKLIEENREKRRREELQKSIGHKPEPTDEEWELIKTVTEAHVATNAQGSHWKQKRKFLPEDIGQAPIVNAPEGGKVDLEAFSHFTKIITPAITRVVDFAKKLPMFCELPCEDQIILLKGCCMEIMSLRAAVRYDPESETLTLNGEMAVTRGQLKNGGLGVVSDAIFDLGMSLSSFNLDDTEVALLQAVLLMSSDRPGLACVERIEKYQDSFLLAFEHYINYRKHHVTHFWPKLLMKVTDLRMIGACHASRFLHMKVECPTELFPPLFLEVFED

[12] = target: T1, Peroxisome proliferator-activated receptor gamma (Homo sapiens); test: Agonist activity at N-terminal GFP-fused PPARgamma LBD (unknown origin) assessed as biotin-labeled SRC-1 recruitment incubated for 2 hrs by HT-FRET assay
[13] = target: T1, Peroxisome proliferator-activated receptor gamma (Homo sapiens); test: Agonist activity at PPARgamma in human HepG2 cells without THRB knockdown assessed as induction of CD36 expression at 1 uM incubated for 8 hrs in by Western blot analysis; type: cell-based

Row | SMILES | Drug metabolism [1] [ng] | Activity [2] | Activity [3] | Activity [4] | Activity [5] | Activity [6] [%] | Activity [7] | Activity [8] | Activity [9] | Activity [10] | pEC50 [11] | Activity [12] | Activity [13]
1 | N[C@@H](Cc1cc(I)c(Oc2cc(I)c(O)c(I)c2)c(I)c1)C(=O)O [LEVOTHYROXINE] | 174 | inactive | Active | inactive | Active | – | – | – | – | – | – | – | –
2 | O=C(O)Cc1cc(I)c(Oc2cc(I)c(O)c(I)c2)c(I)c1 [TETRAC] | – | – | – | – | – | 8.2 | Active | inactive | inactive | Active | 7.70 | Active | Active
